# According to US4393228A, “Epoxysuccinic acid derivatives” (Taisho Pharmaceutical Co., Ltd., priority 1977, dated 1983):
# Structures can show the parent of a compound that is named as a salt.
# Biological target: T1, papain (Carica papaya, UniProt P00784)
# T1 construct: purchased Sigma Chem. Co
# T1 sequence (P00784 134-345): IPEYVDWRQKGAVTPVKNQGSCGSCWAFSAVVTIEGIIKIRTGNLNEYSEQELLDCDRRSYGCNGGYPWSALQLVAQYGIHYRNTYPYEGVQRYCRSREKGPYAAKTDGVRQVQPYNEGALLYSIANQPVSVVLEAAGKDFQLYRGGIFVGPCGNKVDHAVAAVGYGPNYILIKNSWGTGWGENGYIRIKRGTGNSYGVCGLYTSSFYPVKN
# Assay: Papain inhibitory activity (milk casein digestion)
# Format: biochemical
# Conditions: papain 80 μg/ml 0.5 ml, cysteine, pH 6.8, 1% milk casein, 40° C., 10 minutes
# Procedure, shortened: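 Papain (80 μg/ml stock) preincubated 15 min at 40 °C with inhibitor, cysteine/EDTA activator and phosphate buffer pH 6.8. Then 1% milk casein digested 10 min at 40 °C, stopped with trichloroacetic acid and filtered; filtrate absorbance at 280 nm gives percent inhibition versus no-inhibitor control.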
row,SMILES,ID50 (amount of inhibitor for 50% inhibition)
1,"O=C(OCc1ccccc1I)[C@@H]1O[C@H]1C(=O)OCc1ccccc1I (relative stereo) [EP-105, di-o-iodobenzyl epoxysuccinate]",0.40 γ
2,"O=C(O)C1OC1C(=O)OC1CC(Cl)CCC1Br (stereo not drawn) [EP-12, 2'-cis-bromo-5'-trans-chlorocyclohexyl potassium epoxysuccinate]",0.07 γ
3,"O=C(O)[C@@H]1O[C@H]1C(=O)OCCC1CCCCC1 (relative stereo) [EP-62, 2-cyclohexaneethyl potassium epoxysuccinate]",0.08 γ
4,"O=C(O)[C@H]1O[C@@H]1C(=O)OCCc1ccccc1 (relative stereo) [EP-130, 2'-phenylethyl potassium epoxysuccinate]",0.10 γ
5,"CCOC(=O)C1OC1C(=O)N[C@H](C(=O)OCc1ccccc1)C(C)C (stereo partly drawn) [EP-158, N-(3-ethoxycarbonyloxirane-2-carbonyl)-L-valine benzyl ester]",3.47 γ
6,"Cc1cccc(COC(=O)C2OC2C(=O)N[C@@H](Cc2ccc(O)cc2)C(=O)OCc2ccccc2)c1 (stereo partly drawn) [EP-148, N-(3-m-methylbenzyloxycarbonyloxirane-2-carbonyl)-L-tyrosine benzyl ester]",0.70 γ
7,"O=C(O)C1OC1C(=O)N[C@@H](Cc1c[nH]c2ccccc12)C(=O)O (stereo partly drawn) [EP-177, N-(3-carboxyoxirane-2-carbonyl)-L-tryptophan]",1.50 γ
8,"N=C(NCCC[C@H](NC(=O)C1OC1C(=O)OCc1ccccc1)C(=O)OCc1ccccc1)N[N+](=O)[O-] (stereo partly drawn) [EP-178, N-(3-benzyloxycarbonyloxirane-2-carbonyl)-N^G -nitro-L-arginine benzyl ester]",4.63 γ
9,"CCOC(=O)[C@H](Cc1ccccc1)NC(=O)C1OC1C(=O)OC1C2CC3CC(C2)CC1C3 (stereo partly drawn) [EP-210, N-[3-(2'-adanatyloxy)-carbonyloxirane-2-carbonyl]-L-phenyl alanine ethyl ester]",1.12 γ
10,"O=C(O[C@@H]1CCCC[C@H]1Cl)[C@@H]1O[C@H]1C(=O)O[C@@H]1CCCC[C@H]1Cl (relative stereo) [EP-7, di-2'-trans-chlorocyclohexyl epoxysuccinate]",2.25 γ
11,"O=C(O)[C@@H]1O[C@H]1C(=O)OCC1CC1 (relative stereo) [EP-40, cyclopropanemethyl potassium epoxysuccinate]",0.34 γ
12,"O=C(OCc1ccco1)[C@@H]1O[C@H]1C(=O)OCc1ccco1 (relative stereo) [EP-77, di-2-furanmethyl epoxysuccinate]",0.77 γ
13,"O=C(OCC=Cc1ccccc1)[C@H]1O[C@@H]1C(=O)OCC=Cc1ccccc1 (relative stereo) [EP-133, di-3'-phenyl-2'-propenyl epoxysuccinate]",2.81 γ
14,"CCOC(=O)C1OC1C(=O)N[C@@H](CC(C)C)C(=O)OCC (stereo partly drawn) [EP-146, N-(3-ethoxycarbonyloxirane-2-carbonyl)-L-leucine ethyl ester]",0.39 γ
15,"O=C(OC1CC2CCC1C2)C1OC1C(=O)OC1CC2CCC1C2 (centres unmarked) [EP-55, dinorbornyl epoxysuccinate]",0.28 γ
16,"O=C(OCC12CC3CC(CC(C3)C1)C2)[C@@H]1O[C@H]1C(=O)OCC12CC3CC(CC(C3)C1)C2 (relative stereo) [EP-47, di-1-adamantanemethyl epoxysuccinate]",0.25 γ
17,"CCOC(=O)[C@H](CC(C)C)NC(=O)C1OC1C(=O)OC (stereo partly drawn) [EP-166, N-(3-methoxycarbonyloxirane-2-carbonyl)-L-leucine ethyl ester]",0.67 γ
18,"O=C(OC1CC(Cl)CC(Cl)C1)C1OC1C(=O)OC1CC(Cl)CC(Cl)C1 (stereo not drawn) [EP-23, di-3',5'-trans-dichlorocyclohexyl epoxysuccinate]",2.45 γ
19,"O=C(OC1CCC(Cl)C1)C1OC1C(=O)OC1CCC(Cl)C1 (stereo not drawn) [EP-29, di-3'-cis-chlorocyclopentyl epoxysuccinate]",3.12 γ
20,"CCOC(=O)[C@H](Cc1ccccc1)NC(=O)C1OC1C(=O)OCc1ccccc1Cl (stereo partly drawn) [EP-160, N-(3-o-chlorobenzyloxycarbonyloxirane-2-carbonyl)-L-phenylalanine ethyl ester]",0.30 γ
21,"O=C(O)C1OC1C(=O)OCC1CC=CCC1 (centres unmarked) [EP-70, 3-cyclohexenemethylpotassium epoxysuccinate]",0.08 γ

row,SMILES,ID50 (amount of inhibitor for 50% inhibition)
1,"O=C(OCc1cc(Cl)ccc1Cl)[C@H]1O[C@@H]1C(=O)OCc1cc(Cl)ccc1Cl (relative stereo) [EP-127, di-2',5'-dichlorobenzyl epoxysuccinate]",2.00 γ
2,"O=C(O)[C@@H]1O[C@H]1C(=O)OC1CC1 (relative stereo) [EP-28, cyclopropyl potassium epoxysuccinate]",0.80 γ
3,"O=C(O)C1OC1C(=O)OC1CCCC(Br)C1 (stereo not drawn) [EP-10, 3'-cis-bromocyclohexyl potassium epoxysuccinate]",0.06 γ
4,"O=C(OCc1ccc(I)cc1)[C@@H]1O[C@H]1C(=O)OCc1ccc(I)cc1 (relative stereo) [EP-111, di-p-iodobenzyl epoxysuccinate]",2.91 γ
5,"O=C(O[C@@H]1CCC[C@H]1Br)[C@@H]1O[C@H]1C(=O)O[C@@H]1CCC[C@H]1Br (relative stereo) [EP-33, di-2'-trans-bromocyclopentylepoxysuccinate]",3.20 γ
6,"O=C(O)[C@@H]1O[C@H]1C(=O)OCCCC1CCCCC1 (relative stereo) [EP-66, 3-cyclohexanepropyl potassium epoxysuccinate]",0.08 γ
7,"O=C(O)[C@@H]1O[C@H]1C(=O)O[C@@H]1CCC[C@H]1Br (relative stereo) [EP-34, 2'-trans-bromocyclopentyl potassium epoxysuccinate]",0.07 γ
8,"Cc1ccc(COC(=O)[C@@H]2O[C@H]2C(=O)OCc2ccc(C)cc2)cc1 (relative stereo) [EP-89, di-p-methylbenzyl epoxysuccinate]",1.39 γ
9,"O=C(O)[C@H]1O[C@@H]1C(=O)OCc1ccccc1Cl (relative stereo) [EP-108, o-chlorobenzyl potassium epoxysuccinate]",0.09 γ
10,"CC(C)C[C@H](NC(=O)C1OC1C(=O)OC1CCCC1Br)C(=O)OCc1ccccc1 (stereo partly drawn) [EP-214, N-[3-(2'-trans-bromocyclopentyloxy)-carbonyloxirane-2-carbonyl]-L-leucine benzyl ester]",0.13 γ
11,"CC(C)(C)OC(=O)[C@H](Cc1ccccc1)NC(=O)C1OC1C(=O)OCC1CCCO1 (stereo partly drawn) [EP-218, N-[3-tetrahydrofurfuryloxycarbonyloxirane-2-carbonyl]-L-phenylalanine t-butyl ester]",1.65 γ
12,"C[C@H]1CC[C@@H](OC(=O)[C@@H]2O[C@H]2C(=O)O)CC1 (relative stereo) [EP-18, 4'-cis-methylcyclohexyl potassium epoxysuccinate]",0.08 γ
13,"CC(OC(=O)C1OC1C(=O)OC(C)C1CCCC1)C1CCCC1 (centres unmarked) [EP-45, di-1-cyclopentaneethyl epoxysuccinate]",0.23 γ
14,"O=C(O)[C@@H]1O[C@H]1C(=O)OCc1c(Cl)ccc2ccccc12 (relative stereo) [EP-84, 2'-chloro-1'-naphthylmethyl potassium epoxysuccinate]",0.29 γ
15,"N=C(N)NCCC[C@H](NC(=O)C1OC1C(=O)O)C(=O)O (stereo partly drawn) [EP-202, N-(3-carboxyoxirane-2-carbonyl)-L-arginine]",21.93 γ
16,"CCOC(=O)C1OC1C(=O)N[C@@H](CO)C(=O)OCC (stereo partly drawn) [EP-186, N^α -(3-ethoxycarbonyloxirane-2-carbonyl)-L-serine ethyl ester]",23.15 γ
17,"O=C(NCCCC[C@H](NC(=O)C1OC1C(=O)O)C(=O)O)OCc1ccccc1 (stereo partly drawn) [EP-176, N-(3-carboxyoxirane-2-carbonyl)-N-carbobenzoxy-L-lysine dipotassium salt]",1.06 γ
18,"C[C@H]1CCCC[C@H]1OC(=O)[C@@H]1O[C@H]1C(=O)O (relative stereo) [EP-4, 2'-cis-methylcyclohexyl potassium epoxysuccinate]",0.09 γ
19,"CCOC(=O)[C@H](Cc1ccccc1)NC(=O)C1OC1C(=O)OC1CCCCC1C (stereo partly drawn) [EP-212, N-[3-(2'-cis-methylcyclohexyloxy)carbonyloxirane-2-carbonyl]-L-phenylalanine ethyl ester]",1.21 γ
20,"CCOC(=O)C1OC1C(=O)N[C@@H](Cc1c[nH]c2ccccc12)C(=O)OCC (stereo partly drawn) [EP-151, N-(3-ethoxycarbonyloxirane-2-carbonyl)-L-tryptophan ethyl ester]",7.20 γ
